Holding throughout (test): Post-emergence efficacy of compounds of Formula (I) (B1), glasshouse
Assay type in all cases: in vivo

Assay [1] concerns Echinochloa crus-galli (ECHCG). The settings on record: Application Rate 500 g/Ha, evaluated after 13 days; for pest or weed control at 500 g/ha: Echinochloa crus-galli, post-emergence, 312 h, read-out: Control of ECHCG after post-emergence application (100=total damage to plant; 0=no damage to plant). The protocol: (§1) Seeds of a variety of test species were sown in standard Iaom-based soil in pots:— Ipomoea hederacea (IPOHE), Euphorbia heterophylla (EPHHL), Chenopodium album (CHEAL), Amaranthus palmeri (AMAPA), Lolium perenne (LOLPE), Digitaria sanguinalis (DIGSA), Eleusine indica (ELEIN), Echinochloa crus-galli (ECHCG), Setaria faberi (SETFA). After cultivation for 14 days (post-emergence) under controlled conditions in a glasshouse (at 24/16° C., day/night; 14 hours light; 65% humidity), the plants were sprayed with an aqueous spray solution derived from the dissolution of the technical active ingredient Formula (I) in a small amount of acetone and a special solvent and emulsifier mixture referred to as IF50 (11.12% Emulsogen EL360 TM+44.44% N-methylpyrrolidone+44.44% Dowanol DPM glycol ether), to create a 50 g/I solution which was then diluted to required concentration using 0.25% or 1% Empicol ESC70 (Sodium lauryl ether sulphate)+1% ammonium sulphate as diluent. The delivery of the aqueous spray solution was via a laboratory track sprayer which delivered the aqueous spray composition at a rate of 200 litres per hectare, using a flat fan nozzle (Teejet 11002VS) and an application volume of 200 litre/ha (at 2 bar).
(§2) The test plants were then grown in a glasshouse under controlled conditions (at 24/16° C., day/night; 14 hours light; 65% humidity) and watered twice daily. After 13 days the test was evaluated (100=total damage to plant; 0=no damage to plant).

In assay [2] the test system is Lolium perenne (LOLPE). Particulars: Application Rate 500 g/Ha, evaluated after 13 days; for pest or weed control at 500 g/ha: Lolium perenne, post-emergence, 312 h, read-out: Control of LOLPE after post-emergence application (100=total damage to plant; 0=no damage to plant). As for the experimental part: as §1, §2
The test system of assay [3] is Chenopodium album (CHEAL). The settings on record: Application Rate 500 g/Ha, evaluated after 13 days; for pest or weed control at 500 g/ha: Chenopodium album, post-emergence, 312 h, read-out: Control of CHEAL after post-emergence application (100=total damage to plant; 0=no damage to plant). The protocol:
as §1, §2

Assay [4] concerns Euphorbia heterophylla (EPHHL). The settings on record: Application Rate 500 g/Ha, evaluated after 13 days; for pest or weed control at 500 g/ha: Euphorbia heterophylla, post-emergence, 312 h, read-out: Control of EPHHL after post-emergence application (100=total damage to plant; 0=no damage to plant). The protocol: as §1, §2
The test system of assay [5] is Eleusine indica (ELEIN). The settings on record: Application Rate 500 g/Ha, evaluated after 13 days; for pest or weed control at 500 g/ha: Eleusine indica, post-emergence, 312 h, read-out: Control of ELEIN after post-emergence application (100=total damage to plant; 0=no damage to plant). As for the experimental part:
as §1, §2

Assay [6] relates to Digitaria sanguinalis (DIGSA). The settings on record: Application Rate 500 g/Ha, evaluated after 13 days; for pest or weed control at 500 g/ha: Digitaria sanguinalis, post-emergence, 312 h, read-out: Control of DIGSA after post-emergence application (100=total damage to plant; 0=no damage to plant). The protocol:
as §1, §2

Assay [7] has as its system Ipomoea hederacea (IPOHE). Particulars: Application Rate 500 g/Ha, evaluated after 13 days; for pest or weed control at 500 g/ha: Ipomoea hederacea, post-emergence, 312 h, read-out: Control of IPOHE after post-emergence application (100=total damage to plant; 0=no damage to plant). As for the experimental part: as §1, §2
For assay [8], the system named is Amaranthus palmeri (AMAPA). The settings on record: Application Rate 500 g/Ha, evaluated after 13 days; for pest or weed control at 500 g/ha: Amaranthus palmeri, post-emergence, 312 h, read-out: Control of AMAPA after post-emergence application (100=total damage to plant; 0=no damage to plant). The protocol: as §1, §2
Assay [9] deals with Setaria faberi (SETFA). The settings on record: Application Rate 500 g/Ha, evaluated after 13 days; for pest or weed control at 500 g/ha: Setaria faberi, post-emergence, 312 h, read-out: Control of SETFA after post-emergence application (100=total damage to plant; 0=no damage to plant). As for the experimental part: as §1, §2

The structures appear in SMILES notation.

Take `CC(C)(CC(=O)O)[n+]1ccc(-c2ncccn2)cn1` [Compound 1.025, 3-methyl-3-(4-pyrimidin-2-ylpyridazin-1-ium-1-yl)butanoic acid 2,2,2-trifluoroacetate]: the pest or weed control at 500 g/ha came to 100% in assay [1]; 30% in assay [2]; 70% in assay [3]; 40% in assay [4]; 100% in assay [5]; 90% in assay [6]. In addition, the pest or weed control at 500 g/ha in [7] is 50%; in assay [8], 100%; in assay [9], 100%.

Consider `CC(C[n+]1ccc(-c2ncccn2)cn1)S(=O)(=O)[O-]` (stereo not drawn) [Compound 1.026, 1-(4-pyrimidin-2-ylpyridazin-1-ium-1-yl)propane-2-sulfonate], for which the pest or weed control at 500 g/ha is 80% in [1]; 80% in [2]; 80% in assay [3]; 90% in assay [4]; 100% in assay [5]; 100% in assay [6]. For the same compound, the pest or weed control at 500 g/ha in assay [7] was 70%; in [8] it was 100%; in assay [9], 100%.

Turning to `O=C(O)CC[n+]1ccc(-c2cccnn2)cn1.[Cl-]` [Compound 1.027, 3-(4-pyridazin-3-ylpyridazin-1-ium-1-yl)propanoic acid chloride], in [1], the “Control of ECHCG after post-emergence application (100=total damage to plant; 0=no damage to plant)” value is listed as 100. Further, the pest or weed control at 500 g/ha turned out to be 100% in assay [2] and 80% in [5]. For the same compound, the “Control of CHEAL after post-emergence application (100=total damage to plant; 0=no damage to plant)” value in assay [3] was 100. Also, the “Control of EPHHL after post-emergence application (100=total damage to plant; 0=no damage to plant)” value in assay [4] was 100. For the same compound, in [6], the “Control of DIGSA after post-emergence application (100=total damage to plant; 0=no damage to plant)” value is given as 100. The “Control of IPOHE after post-emergence application (100=total damage to plant; 0=no damage to plant)” value in assay [7] was 30. Besides, the “Control of AMAPA after post-emergence application (100=total damage to plant; 0=no damage to plant)” value in [8] is given as 100. Also, the “Control of SETFA after post-emergence application (100=total damage to plant; 0=no damage to plant)” value in [9] is given as 100.

`O=S(=O)([O-])CC(O)C[n+]1ccc(-c2ncccn2)cn1` (stereo not drawn) [Compound 1.028]: the pest or weed control at 500 g/ha in assay [1] came out at 100%; in assay [2], 70%; in assay [3], 90%; in assay [4], 80%; in assay [5], 100%; in [6], 90%. Also, the pest or weed control at 500 g/ha in assay [7] came to 30%; in assay [8] it was 100%; in [9] it was 100%.

As to `N[C@H](CC[n+]1ccc(-c2ncccn2)cn1)C(=O)O` [Compound 1.029, [(1R)-1-carboxy-3-(4-pyrimidin-2-ylpyridazin-1-ium-1-yl)propyl]-ammonium 2,2,2-trifluoroacetate], the pest or weed control at 500 g/ha came out at 60% in assay [1]; 20% in assay [2]; 100% in assay [3]; 90% in assay [4]; 100% in [5]; 90% in [6]. Besides, the pest or weed control at 500 g/ha in [7] was determined as 90%; in assay [8] it was 100%; in assay [9], 100%.

As to `N[C@@H](CCC[n+]1ccc(-c2ncccn2)cn1)C(=O)O` [Compound 1.030, [(1S)-1-carboxy-4-(4-pyrimidin-2-ylpyridazin-1-ium-1-yl)butyl]-ammonium dichloride], the pest or weed control at 500 g/ha in assay [1] is 100%; in assay [2], 60%; in [3], 100%; in assay [4] it was 100%; in assay [5] it was 90%; in assay [6], 100%. The figures for the pest or weed control at 500 g/ha in assay [7], in assay [8] and in assay [9] were 60%, 100% and 100%, respectively.

On to `Cl.O=S(=O)([O-])CC[n+]1ccc(-c2cccnn2)cn1` [Compound 1.031, 2-(4-pyridazin-1-ium-3-ylpyridazin-1-ium-1-yl)ethanesulfonate chloride], for which the pest or weed control at 500 g/ha in assay [1] was 100%; in assay [2], 90%; in [3], 90%; in [4], 100%; in [5], 100%; in assay [6] it was 100%. The pest or weed control at 500 g/ha in assay [8] and in assay [9] was 100% throughout. Further, the “Control of IPOHE after post-emergence application (100=total damage to plant; 0=no damage to plant)” value in [7] amounted to 70.

For `N#C[N-]C(=O)CC[n+]1ccc(-c2ncccn2)cn1` [Compound 1.033], the pest or weed control at 500 g/ha in assay [1] is 90%; in assay [2], 90%; in assay [3], 100%; in [4], 100%; in [5], 100%; in [6], 100%. In addition, the pest or weed control at 500 g/ha came out at 50% in [7], 100% in [8] and 90% in assay [9].

For `Cl.O=C(O)CC[n+]1ccc(-c2cccnn2)cn1.[Cl-]` [Compound 1.034, 3-(4-pyridazin-1-ium-3-ylpyridazin-1-ium-1-yl)propanoic acid dichloride], the pest or weed control at 500 g/ha in assay [1], in assay [3], in [4], in assay [6], in assay [8] and in assay [9] was 100% throughout. Further, the “Control of LOLPE after post-emergence application (100=total damage to plant; 0=no damage to plant)” value in assay [2] was found to be 90. Also, the “Control of ELEIN after post-emergence application (100=total damage to plant; 0=no damage to plant)” value in assay [5] stood at 100. Further, in [7], the “Control of IPOHE after post-emergence application (100=total damage to plant; 0=no damage to plant)” value is recorded as 60.

Regarding `N[C@@H](CC[n+]1ccc(-c2ncccn2)cn1)C(=O)O` [Compound 1.035, [(1S)-1-carboxy-3-(4-pyrimidin-2-ylpyridazin-1-ium-1-yl)propyl]-ammonium 2,2,2-trifluoroacetate], the pest or weed control at 500 g/ha in assay [1] is 60%; in assay [2], 20%; in assay [3] it was 100%; in assay [4], 90%; in assay [5], 100%; in assay [6], 90%. Also, the pest or weed control at 500 g/ha stood at 90% in assay [7], 100% in [8] and 100% in assay [9].
